The target in this assay is T1, mT2R8 (Mus musculus, UniProt Q9JKT3).
T1 construct: expressed in transfected cells; host or cells: HEK-293 cells (PEAKrapid) expressing Gα15
T1 sequence (Q9JKT3 1-297): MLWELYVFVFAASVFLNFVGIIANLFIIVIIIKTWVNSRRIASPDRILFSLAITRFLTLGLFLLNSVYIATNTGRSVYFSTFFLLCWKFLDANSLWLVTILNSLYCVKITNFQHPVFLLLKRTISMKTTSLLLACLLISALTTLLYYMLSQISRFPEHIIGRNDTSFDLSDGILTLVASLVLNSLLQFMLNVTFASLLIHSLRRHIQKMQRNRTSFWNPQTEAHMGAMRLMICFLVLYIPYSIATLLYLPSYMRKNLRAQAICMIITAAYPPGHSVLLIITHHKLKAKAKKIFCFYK
In words: FURA-2 [Ca2+]i imaging in HEK-293 cells expressing Gα15 and rho-mT2R8. It is filed as cell-based. The conditions noted are these: for [Ca2+]i response (FURA-2): 1.5 mM denatonium. From the text: In this system, receptor activation leads to increases in intracellular calcium [Ca2+]i, which can be monitored at the single cell level using the FURA-2 calcium-indicator dye (Tsien et al., Cell Calcium 6:145-157 (1985)). To test and optimize Gα15 coupling, two different GPCRs, a Gαi-coupled μ-opioid receptor (Reisine, Neuropharm. 34:463-472 (1995)) and a Gαq-coupled mGluR1 receptor (Masu et al., Nature 349:760-765 (1991)), were used. Transfection of these receptors into HEK-293 cell produced robust, agonist-selective, and Gα15-dependent Ca^2+ responses (FIG. 1).
A number of studies have shown that many GPCRs, in particular sensory receptors, require specific “chaperones” for maturation and targeting through the secretory pathway (Baker et al., Embo J 13:4886-4895 (1994); Dwyer et al., Cell 93:455-466 (1998)). Recently, Krautwurst et al. (Cell 95:917-926 (1998)) generated chimeric receptors consisting of the first 20 amino acids of rhodopsin and various rodent olfactory receptors. These were targeted to the plasma membrane and functioned as odorant receptors in HEK-293 cells. To determine whether rhodopsin sequences can also help target T2Rs to the plasma membra, rhodopsin-T2R chimeras (rho-T2Rs) were constructed. […] Similar results were obtained with 11 human and 16 rodent T2Rs (see below). To further enhance the level of T2R expression, rho-T2Rs were placed under the control of a strong EF-1α promoter, and introduced as episomal plasmids into modified HEK-293 cells expressing Gα15 (pEAKrapid cells).
A bridge overlap PCR extension technique was used to generate rho-T2R chimeras, which contain the first 39 amino acids of bovine rhodopsin in frame with human and rodent T2R coding sequences (Mehta and Singh, Biotechniques 26:1082-1086 (1999). All receptors were cloned into a pEAK10 mammalian expression vector (Edge Biosystems, MD). Modified HEK-293 cells (PEAK^rapid cells; Edge BioSystems, MD) were grown and maintained at 37° C. in UltraCulture medium (Bio Whittaker) supplemented with 5% fetal bovine serum, 100 μg/ml Gentamycin sulphate (Fisher), 1 μg/ml Amphotericin B and 2 mM GlutaMax I (Lifetechnologies). For transfection, cells were seeded onto matrigel coated 24-well culture plates or 35 mm recording chambers. After 24 h at 37° C., cells were washed in OptiMEM medium (Lifetechnologies) and transfected using LipofectAMINE reagent (Lifetechnologies). Transfection efficiencies were estimated by co-transfection of a GFP reporter plasmid, and were typically >70%. Immunofluoresence staining, and activity assays were performed 36-48 h after transfection.
Transfected cells were washed once in Hank's balanced salt solution with 1 mM sodium pyruvate and 10 mM HEPES, pH 7.4 (assay buffer), and loaded with 2 μM FURA-2 AM (Molecular Probes) for 1 h at room temperature. The loading solution was removed and cells were incubated in 200 μl of assay buffer for 1 h to allow the cleavage of the AM ester. […] [Ca^2+]i changes were monitored using a Nikon Diaphot 200 microscope equipped with a 10×/0.5 fluor objective with the TILL imaging system (T.I.L.L Photonics GmbH). Acquisition and analysis of the fluorescence images used TILL-Vision software. Generally, [Ca^2+]i was measured for 80-120 s by sequentially illuminating cells for 200 ms at 340 nm and 380 nm and monitoring the fluorescence emission at 510 nm using a cooled CCD camera. The F340/F380 ratio was analyzed to measure [Ca^2+]i.
Kinetics of activation and deactivation were measured using a bath perfusion system. […]

`CC[N+](CC)(CC(=O)Nc1c(C)cccc1C)Cc1ccccc1` [denatonium]: the receptor activation entry is “activated”. Moreover, where the note is “absence of Gα15”, the “[Ca2+]i response (FURA-2)” value was “No increase in [Ca2+]i”. Besides, the “[Ca2+]i response (FURA-2)” value (with Gα15) is reported as “robust Gα15 dependent responses”. Also, the “increase in [Ca2+]i on tastant stimulation” value (concentrations as in FIG. 4 (denatonium 5 mM)) is “increase in [Ca2+]i could be induced”.

These data come from US9817000B2, “Method for identifying compounds that modulate a T2R taste receptor” (The Regents of the University of California, priority 1999, dated 2017).
